Assay results reported in patent publication US11253589B2, “Modulation of the immune response” (priority 2007, dated 2022).

Assays:
[1] = system: CD4+ Foxp3+ Treg; assay: CD4+Foxp3+ Treg levels in AHR-d mice; type: in vivo; settings: TCDD 1 μg/mouse
Source text: To confirm that the effects on EAE were mediated by the activation of AHR, we used C57BL/6 mice carrying the d allele of the ahr gene (AHR-d mice). This allele codes for a mutant AHR with a 10 fold reduction in its affinity for TCDD and other ligands (Okey et al., Mol Pharmacol. 35, 823-30 (1989)) due to mutations in its ligand binding sites.

[2] = system: zFoxp3; assay: zFoxp3 expression in zebrafish embryos by real time PCR; type: in vivo; settings: 3-day post-fertilization zebrafish embryos, TCDD in water, 72 hours
Protocol: The expression of zFoxp3 was then analyzed by real-time PCR on FACS-sorted lymphocytes, myelomonocytes and erythrocytes (Traver et al., Nat Immunol 4, 1238-46 (2003)). RNA was extracted from cells using RNAeasy columns (Qiagen, Valencia, Calif., USA), complementary DNA was prepared as recommended (Bio-Rad Laboratories, Hercules, Calif., USA) and used as template for real time PCR. The expression of Foxp3 was quantified with specific primers and probes (Applied Biosystems, Foster City, Calif., USA) on the GeneAmp 5500 Sequence Detection System (Applied Biosystems). Expression was normalized to the expression of the housekeeping gene, GAPDH.
TCDD was also used to characterize the functional relationship between AHR and Foxp3.

[3] = system: AHR; assay: ChIP analysis of the interaction of AHR with CABS and NCABS in foxp3; type: cell-based, mouse; settings: CD4+ T cells treated with TCDD for 90'
Protocol: Briefly, cells were treated for 90′ with TCDD, fixed with 1% formaldehyde for 15 minutes and quenched with 0.125 M glycine. Chromatin was isolated and sheared to an average length of 300-500 bp by sonication. Genomic DNA (input) was prepared by treating aliquots of chromatin with RNase, proteinase K and heat for de-crosslinking, followed by ethanol precipitation. AHR-bound DNA sequences were immuno-precipitated with an AHR-specific antibody (Biomol SA-210). Crosslinks were reversed by incubation overnight at 65° C., and ChIP DNA was purified by phenol-chloroform extraction and ethanol precipitation. Quantitative PCR reactions were then performed using the following primer pairs:
Experimental Ct values were converted to copy numbers detected by comparison with a DNA standard curve run on the same PCR plates. Copy number values were then normalized for primer efficiency by dividing by the values obtained using Input DNA and the same primer pairs. Error bars represent standard deviations calculated from the triplicate determinations.

[4] = system: mutant AHR; settings: Okey et al. 1989; cited from earlier work
[5] = system: CD4+Foxp3:GFP- T cells; assay: In vitro conversion of CD4+Foxp3:GFP- T cells into Treg; type: cell-based, mouse; settings: antibodies to CD3 and CD28 in the presence of TCDD, 5 days
Protocol: CD4+ T cells were purified from Foxp3gfp knock in mice using anti-CD4 beads (Miltenyi, Auburn, Calif., USA) and sorted (FACSAria™ cell sorter, BD Biosciences) into naive CD4^+ Foxp3:GFP^− or CD4^+ Foxp3:GFP T cells. CD4^+ Foxp3:GFP^− T cells were stimulated with plate bound 1 μg/ml of anti-CD3 (145-2C11, eBioscience) and 2 μg/ml of anti-CD28 (37.51, eBioscience) for 5 days, supplemented with recombinant IL-2 (50 U/ml) at day 2 and 4, and analyzed by FACS at day 5 for their differentiation into […]. TGFβ1 (2.5 ng/ml) was used as a positive control.
To establish if TCDD triggered the conversion of CD4^+Foxp3^− T cells into new Foxp3^+ Treg cells, FACS sorted CD4^+Foxp3:GFP− T cells were activated in vitro with antibodies to CD3 and CD28 in the presence of TCDD, and the generation of CD4^+Foxp3:GFP^+ Treg was followed by FACS. TGFb1 was used as a positive control.

[6] = system: CD4+ CD62L+CD45RO- T cells; assay: In vitro differentiation of human naive CD4+ T cells, suppression and real time PCR; type: cell-based
Protocol: To investigate the potential of AHR targeting for the induction of human Treg we activated purified naïve CD4^+ CD62L^+CD45RO^− T cells for healthy donors for 5 days with antibodies to CD3 and CD28 in the presence of TCDD 100 nM or TGFb1 2.5 ng/ml or both.
To study the functionality of the putative human Treg induced in the presence of TCDD we studied their suppressive activity of CD4^+ CD25^High and CD4^+CD25^Low T cells following 5 days of activation in the of TCDD or TGFb1 2.5 ng/ml or both.
To investigate the mechanism mediating the suppressive activity of the TCDD-induced Treg, we analyzed them by real time PCR for the expression of several genes that have been previously linked to the suppressive function of Treg. […] Accordingly, IL-10-specific blocking antibodies could interfere with the suppressive activity of Treg induced with TCDD, but not the of those induced with TGFb1 and TCDD (FIG. 42). Thus, TCDD-induced CD4^+CD25^High T cells are FoxP3^− regulatory cells whose suppressive activity is mediated, at least partially, via IL-10, resembling the phenotype of type 1 Treg (Roncarolo et al., Immunol Rev. 212, 28 (2006); Roncarolo and Gregori, Eur J Immunol. 38, 925 (2008)).

[7] = system: CD4+Foxp3:GFP- 2D2 T cells; assay: In vivo conversion of transferred CD4+Foxp3:GFP- 2D2 T cells into Treg; settings: recipients given 1 μg/mouse TCDD, immunized 2 days later with MOG35-55
Protocol: To investigate if new Treg could also be generated in vivo following TCDD administration, we transferred CD4^+Foxp3:GFP^− 2D2 T cells from CD90.2 donors into wild type CD90.1 recipients. CD4^+Foxp3:GFP^− 2D2 T cells express a MOG35-55-specific T cell receptor. The recipients were administered 1 μg/mouse TCDD and were immunized 2 days later with MOG35-55. CD4^+Foxp3:GFP^+ CD90.2 T cells (donor cells that underwent conversion into Treg upon treatment with TCDD) were then quantified by FACS.

For Clc1cc2c(cc1Cl)Oc1cc(Cl)c(Cl)cc1O2 [TCDD, 2,3,7,8 tetrachlorodibenzo-p-dioxin], the “levels of CD4+ Foxp3+ Treg” value [1] was “did not increase the levels”, the zFoxp3 expression [2] was “dose-dependent increase in zFoxp3 expression” and the “AHR binding to NCABS-1, NCABS-3 in foxp3 (ChIP)” value [3] was “No significant increase in AHR binding”. The “AHR binding to the CABS and NCABS-2 in foxp3 (ChIP)” value [3] was “increased AHR binding to the CABS and NCABS-2”, the “reduction in affinity of mutant AHR (d allele) for TCDD” value [4] was 10 fold and the “conversion of cells in culture into CD4+Foxp3:GFP+ Treg” value [5] was “approximately 13%”. For the same compound, the “induction of suppressive (regulatory) T cells” value ([6]; 5 days activation with antibodies to CD3 and CD28, TGFb1 2.5 ng/ml or TCDD alone) was “generation of both CD4^+ CD25^High and CD4^+ CD25^Low functional human regulatory T cells”, the “IL-10 expression (real time PCR)” value ([6]; TCDD 100 nM) was “increased levels of IL-10” and the “FoxP3 expression (real time PCR)” value ([6]; TCDD 100 nM and TGFb1 2.5 ng/ml) was “significantly up-regulated”. For the same compound, the “FoxP3 expression (real time PCR)” value ([6]; TCDD 100 nM in the absence of TGFb1) was “marginal induction of FoxP3 expression”, the “induction of CD4+ FoxP3+ T cells” value ([6]; TCDD 100 nM, antibodies to CD3 and CD28, 5 days) was “in some (FIG. 36) but not all human samples” and the “suppressive activity of T cells generated with TCDD” value ([6]; TCDD together with TGFb1 2.5 ng/ml) was “amplified in the presence of TGFb1”. The “conversion of CD4+Foxp3:GFP- CD90.2 donor T cells into Treg cells” value [7] was “significant”.
